Experimental findings from patent US9828362B2, “1,4-disubstituted imidazole derivative” (Sumitomo Dainippon Pharma Co., Ltd., priority 2015, dated 2017) are described below.

Some results are limits rather than exact numbers.

One test deals with HCT-116 tumor. Nature of the test: Anti-tumor effect to HCT-116 tumor-bearing mouse. In kind it is in vivo. Particulars: nude mouse, oral, dosage 30 mg/kg, administration period 17 days, tumor volume. From the text: The present compound can be used to evaluate the anti-tumor effect thereof. A 4 to 7-week-old nude mouse (BALB/cAnNCrj-nu/nu, female, CHARLES RIVER LABORATORIES JAPAN, INC.) received intradermal transplantation of HCT-116 cells (ATCC) in an amount of 3×10^6 cells/mouse around the ventral portion. The engraftment of HCT-116 cells was observed 5 to 14 days after the transplantation, and then each compound suspended in a solvent such as 0.5% methylcellulose solution was orally administrated to the mouse in a dose of 1 to 100 mg/kg one to twice daily. The tumor volume was measured over time after the administration. to evaluate the effect for reducing the tumor volume by the administration of each compound. The tumor volume can be calculated from the minor axis and the major axis of the tumor measured with a digital caliper (Mitutoyo) according to the following formula: Tumor volume [mm^3]=0.5×minor axis [mm]×(major axis [ram])^2
The tumor volume is control administration group treated. with only a solvent such as 0.5% methylcellulose solution was compared with that of the present compound administration group, and T/C value was calculated according the following formula to evaluate the anti-tumor effect of the present compound. […]

Another test relates to HCT-116 cells. The test can be described thus: Test for inhibiting sphere-forming ability of cancer cells (in the presence of BSA). The format is cell-based. The conditions noted are these: Homo sapiens, 96 h, Ultra-Low Attachment plate, medium with 5% bovine serum albumin (BSA), cultured 4 days, CellTiter-Glo, read-out: Sphere IC50 value (concentration for 50% inhibition of cell proliferation). As for the experimental part: HCT-116 cells were available from the American Type Culture Collection (ATCC). HCT-116 cells were cultured at 37° C. and 5% CO2 using the McCoy's 5a medium containing 10% fetal bovine serum (FBS) and 1% penicillin/streptomycin. […] The test compounds were added into each well to adjust the final concentration of DMSO to 0.1%, and the cells were cultured for 4 days.
On the technique in general: ATP-based viability assays read luminescence as a measure of living cells.

For `Nc1cc(C(=O)Nc2cn(Cc3cc(F)c(F)c(F)c3)cn2)cnc1CO` [Example 46], in the test with HCT-116 tumor, the “T/C (%)” value was determined as 91%.

On to `CC(C)(O)c1ccc(/C=C/C(=O)Nc2cn(Cc3cccc(C(F)(F)F)c3)cn2)cn1` [Example 53, (2E)-3-[6-(2-Hydroxypropan-2-yl)pyridin-3-yl]-N-{1-[3-(trifluoromethyl)benzyl]-1H-imidazol-4-yl}prop-2-enamide], for which the IC50 in the test with HCT-116 cells was greater than 10 µM.
